Measurements from patent US11759461B2, “Small molecule inhibitors of cancer stem cells and mesenchymal cancer types” (The Scripps Research Institute, priority 2017, dated 2023).

How the values were obtained:
control HMLER cells = test: Cell Titer Glo viability of control HMLER cells; type: cell-based; conditions: Homo sapiens; 72-hour incubation; read-out: HMLER IC50
Text: An engineered cancer cell line HMLER as an isogenic screening system was employed to identify compounds that are selectively toxic to the FOXC2 positive genotype. HMLER cells are derived from mammary epithelial cells (HMECs), but are virally transformed with the […] oncogene (G12V), human telomerase reverse transcriptase (hTERT), and SV40 large-T antigen (B. Elenbaas, B. et al. Genes Dev. 15 (2001) 50-65). Expression of these genes endows HMLER cells with functional immortality and tumorigenic potential at high seeding number (>10^6 cells; Hollier (2013)). […]
For high throughput screening, FOXC2-HMLER and HMLER cells were plated at 10^3 cells per well in white 384-well plates in 50 μL of MEGM medium (Lonza). […] After 72-hour incubation, 30 μL of a Cell Titer Glo solution (diluted 1:6 in water, Promega) was dispensed into each well and luminance values were recorded using an Envision plate reader. […]
More specifically, in the high throughput screening assay above, each cell line was plated at 1,000 cells per well in 384-well plates, treated for 72 hours with 2 μM of test compound, and the viability of each line was determined in parallel by Cell Titer Glo (Promega) luminance measurements. […]

FOXC2-HMLER cells = test: Confocal imaging of thymidine synced FOXC2-HMLER cells at metaphase; type: cell-based, human
Text: Because Compound 1 induces a hyper-phosphorylated VIM phenotype, we sought to determine if Compound 1's engagement of VIM might interfere at an alternative stage of mitosis. We therefore performed time course confocal imaging studies of Compound 1 treated FOXC2-HMLER cells after their release from thymidine blocking-based cell cycle synchronization.
Compound 1 treatment also disrupted the ability of β-tubulin to faithfully form the fine spindle microtubules of the mitotic spindle, instead resulting in a compressed phenotype with radiating projections connecting unaligned chromosomes. To assess the uniqueness of this phenotype, we evaluated the metaphase phenotypes of other chemical inhibitors which have shown to alter mitotic progression. These included inhibitors of centromere-associated protein E (CENP-E, also called kinesin-7, GSK92395), kinesin spindle protein (KSP, also called Eg5, Ispinesib), polo like kinases (PLK1/2/3, BI2536), and aurora kinases (AURKA/B/C, VX-680).

VIM = target: T1, VIM (Homo sapiens, UniProt P08670); test: Western blotting / immunofluorescence of VIM protein status in FOXC2-HMLER cells; type: cell-based
T1 construct: endogenous in cells; host or cells: FOXC2-HMLER
T1 sequence (P08670 whole entry): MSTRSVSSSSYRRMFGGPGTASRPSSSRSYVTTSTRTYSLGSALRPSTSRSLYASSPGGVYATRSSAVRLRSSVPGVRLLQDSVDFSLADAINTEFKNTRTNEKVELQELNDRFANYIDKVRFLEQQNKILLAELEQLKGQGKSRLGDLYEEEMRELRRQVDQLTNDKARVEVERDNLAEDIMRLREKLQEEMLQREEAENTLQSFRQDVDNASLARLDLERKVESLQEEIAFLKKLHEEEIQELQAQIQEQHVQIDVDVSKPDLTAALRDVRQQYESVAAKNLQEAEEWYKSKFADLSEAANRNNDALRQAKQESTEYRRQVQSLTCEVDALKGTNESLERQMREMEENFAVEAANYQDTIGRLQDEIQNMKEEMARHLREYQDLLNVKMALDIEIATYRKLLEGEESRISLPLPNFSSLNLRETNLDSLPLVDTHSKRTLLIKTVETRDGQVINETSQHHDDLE
Protocol: Western blotting was performed essentially as described previously (M. J. Bollong et al. ACS Chem. Biol. 10 (2015) 2193-2198). Cells were collected by brief trypsinization and centrifugation at 500 g for 5 minutes. Cells were lysed by the addition of RIPA buffer with protease and phosphatase inhibitors (Roche). Lysates were incubated on ice for 30 minutes before eliminating insoluble protein content by centrifugation at 12,000 g for 5 minutes at 4° C. Protein concentrations were determined from absorbance values obtained by a Nanodrop instrument. Equal amounts of protein were then mixed with 2× loading buffer (100 mM TRIS-HCl, 1% SDS, 10% glycerol, 0.1% bromophenol blue 10%-mercaptoethanol) and exposed to 95° C. for 5 minutes. Protein was separated by SDS-PAGE using 4-12% Bis-Tris Gels (Invitrogen) and then transferred to PVDF membranes (Invitrogen) using semi-dry transfer. Membranes were blocked for 1 hour at room temperature in 5% non-fat dry milk in TBST (Tris buffered saline with 0.1% Tween 20). Membranes were incubated overnight with primary antibodies in blocking buffer overnight at the dilutions ranging from 1:500 to 1:2000. After 3 washes with TBST, membranes were then exposed to HRP-conjugated secondary antibodies (1:5000 in blocking buffer, Sigma) for one hour followed by one hour of additional washing with TBST. Relative protein content was visualized using film and SuperSignal West Dura Substrate. For VIM degradation blots, 20-60 μg of protein content was loaded per gel lane and the anti-VIM antibody V9 (ab8069) was used to blot for VIM protein content. Phospho-protein blots were performed as above with the exception that primary antibodies were incubated in 5% bovine serum albumin in TBST instead of milk.
We performed Western blotting analysis of FOXC2-HMLER cells treated for 24 hours with Compound 1 with commercially available antibodies targeting specific phosphorylated VIM species (P-S39, P-S56, P-S83).
In contrast, only a small fraction of cells undergoing mitosis stained positive for P-S56-VIM in DMSO-treated controls, consistent with previous reports identifying phosphorylation at S56 as a modification catalyzed by cyclin dependent kinase 1 (CDK1; FIG. 6) (T. Yamaguchi, T. et al., J. Cell Biol. 171 (2005) 431-436.

[1] = test system: SNAIL-HMLE, MDA-MB-231, and SUM159; test: Growth inhibition of additional mesenchymal breast cancer cell lines; type: cell-based, human; conditions: MDA-MB-231, SUM159, express FOXC2 from endogenous locus
Text: The propagation conditions and generation of FOXC2-HMLER, HMLER, SNAIL-HMLER, SNAIL-HMLE, and SUM159 cells have been described previously (Mani (2008)). MCF-7, HepG2, HCT116, and MDA-MB-231 cells were from ATCC and maintained in DMEM medium (Corning) supplemented with 10% FBS (Corning) with Anti-anti (Gibco). The soft tissue sarcoma cell line panel was purchased from ATCC (TCP-1019) and maintained in the recommended medium for each cell type. HUVEC cells (pooled donor) were maintained in EBM-2 medium (both from Lonza Walkersville). Primary human lung fibroblasts were maintained in Fibroblast Medium (both from Sciencell Research Laboratories). For cell growth experiments, HLFs were grown in DMEM supplemented with 2% FBS and Anti-anti. For all experiments, primary human cells were used at a passage no greater than 4.
For high throughput screening, FOXC2-HMLER and HMLER cells were plated at 10^3 cells per well in white 384-well plates in 50 μL of MEGM medium (Lonza). Cells were allowed to attach for one hour before compound was transferred to each well as a DMSO solution using a 100 nL pintool head affixed to a PerkinElmer FX instrument. After 72-hour incubation, 30 μL of a Cell Titer Glo solution (diluted 1:6 in water, Promega) was dispensed into each well and luminance values were recorded using an Envision plate reader. […]

[2] = FOXC2-HMLER cells, 24 hours, 500 nM, Western blotting
[3] = FOXC2-HMLER cells, Western blotting

- P-S39- and P-S83-VIM protein content (VIM; [2]): modest increase
- steady state levels of P-S56-VIM (VIM; [2]): marked increase
- dibromobimane-crosslinked dimeric VIM protein content (VIM; [3]): dramatically reduced
- lower molecular weight VIM degradation products (VIM; [3]): dose-dependent accumulation
- P-S56-VIM positive FOXC2-HMLER cells (VIM; immunofluorescent staining): concentration dependent increase
Compound: Clc1cccc(N2CCN(c3cnnc4c(Cl)cccc34)CC2)c1 [Compound 1, 8-chloro-4-(4-(3-chlorophenyl)piperazin-1-yl)cinnoline]
- IC50 (control HMLER cells): > 20 µM
- VIM filamentous structure at metaphase (FOXC2-HMLER cells): collapsed VIM filamentous structure
- chromosome alignment to the metaphase plate (FOXC2-HMLER cells): inhibited the ability of chromosomes to align to the metaphase plate
- growth of additional mesenchymal breast cancer cell lines [1]: inhibit the growth
